# Test results as given in US12605362B2, “Eletriptan hydrobromide for treatment of spinal cord injury and improvement of locomotor function” (TECHNOPHAGE, INVESTIGAÇÃO E DESENVOLVIMENTO EM …, priority 2020, dated 2026).
# Counter-ions that a name gives are not always drawn.
# Key:
# [1] = test system: mice with T9 contusion type of injury; experiment: PDGFRβ / CD31 (PECAM-1) double immunohistochemistry, vasculature association; format: in vivo; conditions: sections 1000 μm from epicentre, 42 dpi, vs Vehicle
# Method: (§1) A moderate-severe contusion-type of injury was performed on adult C57BL/6 female mice (10-12 weeks) with an Infinite Horizon Impactor (PSI)^30. All surgeries were performed under aseptic conditions. Briefly, under deep anesthesia with Ketamine and Xylazine (120 mg/kg and 16 mg/kg respectively, i.p.) mice received a dorsal laminectomy at the level of 9th thoracic vertebra (T9). After securing the lateral processes of the 8th thoracic vertebra (T8) and 10th thoracic vertebra (T10) with a stainless-steel impactor tip, a controlled force-defined impact at 75 kdyne was delivered to the exposed spinal cord^28,30. […] Weight was monitored daily until 15 days-post-injury (dpi) and then weekly for the duration of the study and a high caloric pellet (Supreme Mini-Treats™ S05478 and S05472) was provided as a dietary supplement since a 10% weight loss was typically observed in this SCI model upon injury. […]
# For immunohistochemistry in sections, OCT was removed from the cryosections using PBS (30 minutes). […] For activated microglia quantification, sections were counterstained with DAPI. […]
# To infer if increased levels of PDGFRβ^+ detected on the extremities of the lesion extents were associated with blood vessels we decided to performed a double immunohistochemistry using a pericyte marker PDGFRβ and an endothelial cell marker CD31 (PECAM-1) (FIG. 7). […]
# [2] = test system: mice with T9 contusion type of injury; experiment: acetone evaporation assay (cold allodynia) after T9 contusion SCI; format: in vivo; conditions: 14 dpi and 42 dpi, vs Vehicle
# Method: as §1, with “cord^28,30. Then, muscle and skin were closed with 4.0 polyglycolic acid (PGA) absorbable sutures (Safil, G1048213). In this study, mice were excluded when the actual displacement value was outside the interval 500-700 μm or if the actual force after impact was >2SD 75 Kdyne.” for “cord^28,30.”
# An acetone evaporation assay was used to measure the sensitivity to a cold stimulus upon injury^33. […] In each trial, the time spent flicking or licking the hind paw for 60 seconds was measured using a timer and recorded for analysis^34. […]
# 5-HTIF = target: T1, 5-HTIF (Homo sapiens, UniProt P30939); conditions: serotonin receptor agonist; cited from earlier work
# T1 sequence (P30939 1-366): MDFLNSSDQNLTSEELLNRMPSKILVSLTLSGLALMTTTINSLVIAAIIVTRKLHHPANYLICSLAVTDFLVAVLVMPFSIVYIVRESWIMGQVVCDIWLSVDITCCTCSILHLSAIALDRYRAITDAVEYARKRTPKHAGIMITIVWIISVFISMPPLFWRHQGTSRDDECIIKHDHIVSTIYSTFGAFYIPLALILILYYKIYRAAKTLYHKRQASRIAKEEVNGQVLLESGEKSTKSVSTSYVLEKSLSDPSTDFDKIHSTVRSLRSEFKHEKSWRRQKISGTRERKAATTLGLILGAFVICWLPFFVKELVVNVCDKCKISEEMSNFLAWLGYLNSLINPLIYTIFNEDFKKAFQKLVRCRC
# [3] = test system: mice with T9 contusion type of injury; experiment: bladder function score during manual bladder expression after T9 contusion SCI; format: in vivo; conditions: vs Vehicle
# Method: as §1, with “cord^28,30. Then, muscle and skin were closed with 4.0 polyglycolic acid (PGA) absorbable sutures (Safil, G1048213). In this study, mice were excluded when the actual displacement value was outside the interval 500-700 μm or if the actual force after impact was >2SD 75 Kdyne. Immediately after injury, mice were injected subcutaneously with 0.5 ml of sterile saline and then daily for 5 days.” for “cord^28,30.”
# Additionally, we also evaluated the bladder dysfunction status, which is a common effect seen after a SCI^3,37. […]
smiles,measurement,setting,value
"CN1CCC[C@@H]1Cc1c[nH]c2ccc(CCS(=O)(=O)c3ccccc3)cc12 [Eletriptan Hbr, Eletriptan Hydrobromide]",increased expression of PDGFRβ associated with CD31+ endothelial cells,[1],reduced
same,cumulative reaction time of nocifensive responses,[2],consistently but not a significantly decrease
same,number of episodes of the cold hypersensitivity,[2],lower number of episodes
same,affinity,5-HTIF,high affinity
same,volumes of retained urine (bladder score 0 to 3),[3]; 1 dpi,statistically significant smaller volumes of retained urine
same,volumes of retained urine (bladder score 0 to 3),[3]; after 1 dpi until the end of the study,no differences between experimental groups
